Test system: human Treg cells
Assay: Functional screening assay: naïve CD4+ T cell proliferation ([3H]thymidine) with Treg cells and small molecule compounds
Format: cell-based
Settings: compound 1 μM; [3H]thymidine incorporation; marked effect = CPM>60K, 50% restoration
Protocol: These small molecule compounds contain a quinolone structure. Those with a marked effect on the proliferation of CD4^+ naïve T cells (CPM>60K, 50% restoration compared to naïve T cells alone) are considered excellent candidates for further drug development. Naïve T cells alone or CD4^+ naïve cells plus Treg cells, without any compound serve as controls. […]
Specifically, a functional screening assay was carried out using soluable anti-CD3 antibody plus antigen-presenting cells (APCs). Naïve CD4^+T cells were purified from PBMCs using microbeads (Miltenvi Biotec). DCs were generated from PBMC-derived monocytes in the presence of IL-4 (500 ng/ml) and GM-CSF (800 ng/ml) for 7 days. 1×10^5 naïve CD4^+ T cells were cultured with regulatory T cells at different ratios of 1:0.2, 1:0.1 and 1:0.05 in 200 μl of medium containing 2×10^4 of DCs and anti-CD3 antibody (100 ng/ml) in the absence or presence of various small molecule compounds (1 μM). □ After 56 hours of culture, [^3H]thymidine was added at a final concentration of 1 μCi/well, followed by an additional 16 h. of culture. The incorporation of [^3H]thymidine was measured with a liquid scintillation counter. All experiments were performed in triplicate. In addition, a screening assay was performed usinge anti-CD3 antibody coated without APCs: 1×10^5 naïve CD4 T cells were cultured with regulatory T cells at different ratios of 1:0.2, 1:0.1 and 1:0.05 in anti-CD3 mAb-coated (2 μg/ml) 96-well plates in the absence or presence of various small molecule compounds (1 μM) □. After 56 h of culture, [^3H]thymidine was added at a final concentration of 1 μCi/well, followed by an additional 16 h of culture. The incorporation of [^3H]thymidine was measured with a liquid scintillation counter.

Structure (SMILES)	Reversal of the suppressive function of Treg cells (restoration of naïve CD4+ T cell proliferation)
CCCCCn1cc(C(=O)O)c(=O)c2cc(F)c(F)cc21 [#8, 6,7-difluoro-4-oxo-1-pentylquinoline-3-carboxylic acid]	ST008097 #8 No activity
CCn1cc(C(=O)O)c(=O)c2cc(F)c(NN3C(=O)/C(=C\c4ccccc4)N=C3c3ccccc3)cc21 [#9, F[…] 5- MALEIMIDE]	ST023837 #9 No activity
O=C(O)c1c[nH]c2ccccc2c1=O [#10, 4-oxo-1H-quinoline-3-carboxylic acid]	ST020639 #10 No activity
CCn1cc(C(=O)O)c(=O)c2cc(F)c(NN3C(=O)CSC3c3ccccc3Cl)cc21 (stereo not shown) [#11, {[2-(2-chlorophenyl)-4-oxo(1,3-thiazolidin-3-yl)]amino}-1-ethyl-6-fluoro-4-o xohydroquinoline-3-carboxylic acid]	ST048777 #11 No activity
CCn1cc(C(=O)O)c(=O)c2cc(F)c(NN3C(=O)C(Cl)C3c3ccc(OC)cc3)cc21 (stereo not shown) [#12, 7-{[3-Chloro-2-(4-methoxyphenyl)-4-oxo-1-azetidinyl]amino}-1-ethyl-6-fluoro-4-oxo-1,4-dihydro-3-quinolinecarboxylic acid]	ST026709 #12 No activity
CCOC(=O)c1cn(-c2ccc(F)cc2F)c2nc(Cl)c(F)cc2c1=O [#14, ethyl 7-chloro-1-(2,4-difluorophenyl)-6-fluoro-4-oxo-1,8-naphthyridine-3-carboxylate]	ST067113 #14 No activity
Fc1ccccc1N1CCNCC1 [#15, 1-(2-Fluorophenyl)piperazine]	TRE0004030 #15 No activity
Fc1ccc(N2CCNCC2)c(F)c1 [#16, 1-(2,4-Difluorophenyl)piperazine]	TRE0005495 #16 No activity
Fc1ccccc1N1CCNCC1 [#17, 1-(2-Fluorophenyl)piperazine]	TRE0005772 #17 No activity
CCOC(=O)c1c[nH]c2c(F)c(F)c(F)cc2c1=O [#18, Ethyl 6,7,8-trifluoro-1,4-dihydro-4-oxo-3-quinilinecarboxylate]	TRE0006666 #18 No activity
CCn1cc(C(=O)O)c(=O)c2cc(F)c(Cl)cc21 [#19, 7-Chloro-1-ethyl-6-fluoro-4-oxo-1,4-dihydro-3-quinolinecarboxylic acid]	TRE0007211 #19 No activity
CC1COc2c(F)c(F)cc3c(=O)c(C(=O)O)cn1c23 (stereo not shown) [#20, 9,10-Difluoro-3-methyl-7-oxo-2,3-dihydro-7H-[1,4]oxazino[2,3,4-ij]quinoline-6-carboxylic acid]	TRE0008195 #20 No activity
CC1CCc2cc(F)cc3c(=O)c(C(=O)O)cn1c23 (stereo not shown) [#21, 9-Fluoro-5-methyl-1-oxo-6,7-dihydro-1H,5H-pyrido[3,2,1-ij]quinoline-2-carboxylic acid, reference compound]	TRE0065224 #21 No activity
CCN1CCN(c2cc3c(cc2F)c(=O)c(C(=O)O)cn3C2CC2)CC1 [#26, 1-Cyclopropyl-7-(4-ethyl-1-piperazinyl)-6-fluoro-4-oxo-1,4-dihydro-3-quinolinecarboxylic acid, reference compound]	TRE0076990 #26 No activity
CCOC(=O)c1cn(CC)c2c(F)c(F)c(F)cc2c1=O [#27, Ethyl 1-ethyl-6,7,8-trifluoro-1,4-dihydro-4-oxo-3-quinolinecarboxylate]	TRE0080754 #27 No activity
O=C(O)c1coc2ccc(F)cc2c1=O [#28, 6-Fluoro-4-oxo-4H-chromene-3-carboxylic acid]	TRE0080974 #28 No activity
